# Laboratory results published in publication PMC3974779, “Pterostilbene-Isothiocyanate Conjugate Suppresses Growth of Prostate Cancer Cells Irrespective of Androgen Receptor Status” (PLoS ONE, 2014).
# Assays:
# Type in all cases: cell-based, human
# LNCaP cells = assay: MTT cell death with/without p53 inhibitor PFT-α; settings: 20 and 40 μM conjugate 24 h, 20 μM PFT-α pre-treatment
# Source text: Since there was no significant difference in the number of apoptotic cells between conjugate treated LNCaP (wild type p53) and PC-3 (p53 null) cells (p<0.05), it was intriguing to check if p53 has any role in conjugate induced apoptosis of PCa cells. For this study we employed a pharmacological approach using specific wild type p53 inhibitor, pifithrin-α (PFT-α). PFT-α is a small molecule that binds to the DNA binding domain of p53, thereby inhibiting its transcriptional activity. For our experiment the LNCaP cells were pre-treated with 20 μM PFT-α for 2 h prior to the addition of 20 and 40 μM of conjugate for next 24 h. Subsequently the drug treated cells were used to check caspase-3 activity and cell death by immunoblot analysis (Fig. 4A) and MTT assay (Fig. 4B) respectively. […] Next we determined the effect of p53-inhibition on conjugate induced cell death by using MTT assay.
# GRIP-1 in LNCaP cells = assay: Immunoblot of AR co-activators
# Protocol: (§1) The whole-cell lysates were prepared as described previously in immunoprecipitation (IP) buffer containing 50 mM Tris-HCl (pH 8.0), 150 mM NaCl, 5 mM EDTA, and 1% Triton X-100. Protein aliquots of 500 μg were then incubated overnight at 4°C using 2 μg of antibody directed against AR. The Protein A-Cl Agarose beads were then added and further incubated for 6 h at 4°C. The immunoprecipitates were washed four times with the IP buffer and the immunocomplexes were recovered by boiling in SDS sample buffer. Finally the western blot was carried out using anti-AR, anti-SRC-1 and anti-GRIP-1 antibodies (Santa Cruz, CA, USA). For western blot analysis, the cell lysates were prepared after harvesting them in lysis buffer. About 40 μg of total protein was electrophoresed by 12% SDS-PAGE, and the western blotting was carried out using standard protocol. In brief, the analyzed proteins were transferred to nylon membranes. The blots were then blocked with TBST buffer (20 mM Tris-Cl, pH 7.5, 150 mM sodium chloride, 0.05% Tween-20) containing 5% skim milk powder. They were then washed with TBST buffer and incubated overnight at 4°C with the same buffer containing appropriate amounts of primary antibodies: caspase-3, Bax, Bcl-2, Akt, p-Akt, ERK, p-ERK, AR, SRC-1, GRIP-1 (1∶500) and β-actin (1∶1000). The blots were then washed and incubated with anti-rabbit secondary antibody (1∶20,000) conjugated with horseradish peroxidase (HRP). Color development was performed in the dark by using an ECL kit (Amersham, GE Healthcare, Buckinghamshire, UK). The developed blots were subjected to densitometric analysis by ImageJ 1.43 software (NIH, USA) using β-actin as internal control.
# SRC-1 in LNCaP cells = assay: Immunoblot of AR co-activators
# Protocol: as §1
# [1] = tested on: caspase-9 activity in PC-3 cells; assay: Caspase colorimetric protease assay; settings: PC-3, 10, 20 and 40 μM, 24 h
# Protocol: (§2) Caspase activity was determined using ApoTarget caspase colorimetric protease assay sampler kit (KHZ1001; Invitrogen) according to the manufacturer’s instructions. Briefly, both the PCa cells were treated with increasing doses of conjugate and RESV for 24 h. The cells were then collected, washed in PBS, and lysed in 50 μl lysis buffer on ice for 10 min. After centrifugation, the supernatant containing 150 μg proteins were incubated with 200 μM of caspase-3 (Ac-DEVD-pNA), caspase-8 (Ac-IETD-pNA) and caspase-9 (Ac-LEHD-pNA) substrates respectively in reaction buffer at 37°C for 1 h in 96 well flat bottom plate. Levels of released pNA were then measured at 405 nm wavelength with ELISA plate reader (Fluostar optima, BMG Labtech, Germany). The fold-increase in caspase-3, -8, and -9 activities were determined by direct comparison to the level of un-induced control. For the caspase inhibitor assay, cells were pretreated with a synthetic pan-caspase inhibitor (Z-VAD-FMK), caspase-8 inhibitor (Z-IETD-FMK) and caspase-9 inhibitor (Z-LEHD-FMK) for 1 h before the addition of conjugate and the cell death were analyzed by MTT assay as discussed earlier.
# [2] = tested on: caspase-8 activity in PC-3 cells; assay: Caspase colorimetric protease assay; settings: PC-3, 24 h, high dose
# Protocol: as §2
# [3] = tested on: caspase-9 activity in LNCaP cells; assay: Caspase colorimetric protease assay; settings: 24 h
# Protocol: as §2
# [4] = tested on: caspase-3 activity in LNCaP cells; assay: Caspase colorimetric protease assay; settings: 24 h
# Protocol: as §2
# [5] = tested on: caspase-8 activity in LNCaP cells; assay: Caspase colorimetric protease assay; settings: 24 h
# Protocol: as §2
# [6] = tested on: caspase-3 activity in PC-3 cells; assay: Caspase colorimetric protease assay; settings: PC-3, 10, 20 and 40 μM, 24 h
# Protocol: as §2
# [7] = tested on: p53 protein in LNCaP cells; assay: Immunoblot of p53 with p53 inhibitor; settings: 20 μM PFT-α, 20 and 40 μM conjugate, 24 h
# Protocol: The whole-cell lysates were prepared as described previously in immunoprecipitation (IP) buffer containing 50 mM Tris-HCl (pH 8.0), 150 mM NaCl, 5 mM EDTA, and 1% Triton X-100. Protein aliquots of 500 μg were then incubated overnight at 4°C using 2 μg of antibody directed against AR. The Protein A-Cl Agarose beads were then added and further incubated for 6 h at 4°C. The immunoprecipitates were washed four times with the IP buffer and the immunocomplexes were recovered by boiling in SDS sample buffer. Finally the western blot was carried out using anti-AR, anti-SRC-1 and anti-GRIP-1 antibodies (Santa Cruz, CA, USA). For western blot analysis, the cell lysates were prepared after harvesting them in lysis buffer. About 40 μg of total protein was electrophoresed by 12% SDS-PAGE, and the western blotting was carried out using standard protocol. In brief, the analyzed proteins were transferred to nylon membranes. […]
# Since there was no significant difference in the number of apoptotic cells between conjugate treated LNCaP (wild type p53) and PC-3 (p53 null) cells (p<0.05), it was intriguing to check if p53 has any role in conjugate induced apoptosis of PCa cells. […] Next we determined the effect of p53-inhibition on conjugate induced cell death by using MTT assay.
compound,measurement,setting,value
"COc1cc(/C=C/c2ccc(O)c(/C=N/NC(N)=S)c2)cc(OC)c1 [conjugate, Pterostilbene-isothiocyanate conjugate]",cell death with vs without PFT-α,LNCaP cells,did not differ significantly
same,reduction of GRIP-1 level,GRIP-1 in LNCaP cells; 10 μM,1.7 folds
same,reduction of GRIP-1 level,GRIP-1 in LNCaP cells; 20 μM,2.6 folds
same,decrease in expression of SRC-1 protein,SRC-1 in LNCaP cells; 10 μM,1.4 folds
same,decrease in expression of SRC-1 protein,SRC-1 in LNCaP cells; 20 μM,2.6 folds
same,caspase-9 enzyme activity,[1],dose-dependent augmentation
same,caspase-8 activity,[2],no such induction was observed
same,caspase-9 activity,[3],significant increase
same,caspase-3 activity,[4],significant increase
same,caspase-8 activity,[5],significant increase
same,caspase-3 enzyme activity,[6],dose-dependent augmentation
same,expression of p53 protein,[7],dose dependent increase
